molecular target: T1, dN-SARM1 protein (Homo sapiens, UniProt Q6SZW1); test: In vitro biochemical assay for inhibiting SARM1 enzymatic activity (IC50), PC6 fluorescence method; details: 50 μM NAD, 50 μM PC6, 50 μM NMN activator
T1 construct: the N-terminal mitochondrial localization signal peptide of SARM1 was removed
T1 sequence (Q6SZW1 28-724): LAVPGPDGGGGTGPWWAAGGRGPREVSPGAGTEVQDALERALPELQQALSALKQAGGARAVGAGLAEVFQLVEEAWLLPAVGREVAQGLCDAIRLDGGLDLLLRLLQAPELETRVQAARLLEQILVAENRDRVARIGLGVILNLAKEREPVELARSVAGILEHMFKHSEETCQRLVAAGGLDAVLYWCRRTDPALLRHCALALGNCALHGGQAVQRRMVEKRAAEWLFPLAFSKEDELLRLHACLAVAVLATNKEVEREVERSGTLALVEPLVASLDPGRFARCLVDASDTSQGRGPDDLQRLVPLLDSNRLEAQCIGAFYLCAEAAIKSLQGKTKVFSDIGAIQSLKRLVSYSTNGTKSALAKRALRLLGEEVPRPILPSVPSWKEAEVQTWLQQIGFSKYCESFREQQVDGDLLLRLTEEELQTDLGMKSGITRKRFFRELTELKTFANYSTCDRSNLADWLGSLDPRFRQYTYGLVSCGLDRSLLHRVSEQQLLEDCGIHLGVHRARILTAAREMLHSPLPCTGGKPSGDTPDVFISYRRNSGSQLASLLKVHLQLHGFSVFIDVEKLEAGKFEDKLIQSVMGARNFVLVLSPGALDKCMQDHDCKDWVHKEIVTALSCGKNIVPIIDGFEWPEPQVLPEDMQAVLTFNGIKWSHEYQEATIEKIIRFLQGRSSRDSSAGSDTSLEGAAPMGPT
Procedure: 200 μM compound was first added to a solution of 0.05 μg/ml dN-SARM1 in 50 mM Tris-HCl (pH 7.5). Half of the mixture was added to an equal volume of a solution of 0.05 μg/ml dN-SARM1 in 50 mM Tris-HCl (pH 7.5) and mixed. The drug was diluted 6 times in this manner, with the final concentrations being 200, 100, 50, 25, 12.5, 6.25, 3.125 μM, or 200, 50, 12.5, 3.125, 0.78, 0.195, 0.049 μM, respectively. The protein without inhibitors added, being used as control group, was incubated at room temperature for 10 minutes.
50 μM NAD, 50 μM PC6 as substrate and 50 μM NMN as activator were added to the dN-SARM1 protein incubated with the inhibitor and reacted for 30 minutes at room temperature. The concentration of each component was the final concentration in the reaction system.
During the reaction, PC6 fluorescence spectrum dynamics were detected by a microplate reader, wherein the excitation wavelength and emission wavelength for detection were 390 nm and 520 nm, respectively. Finally, the reaction rate was used to express the activity of the protein, and the half inhibitory concentration was calculated. The higher the reaction rate, the stronger the protein activity, and the lower the inhibitory efficiency of the compound.
The dose curve of compounds inhibiting SARM1 enzymatic activity was determined using the above method.

Row | Structure (SMILES) | IC50 [nM]
1 | CNc1ccc2ncc(-c3ccccc3C)n2c1 [Compound 67] | 1000 to 10000
2 | CC(=O)N(C)c1ccc2ncc(-c3cccs3)n2c1 [Compound 43] | 1000 to 10000
3 | CN(C(=O)OC(C)(C)C)c1ccc2ncc(C3=CCCCC3)n2c1 [Compound 83] | 1000 to 10000
4 | CNc1ccc2ncc(-c3ccnc4c3ccn4C)n2c1 [Compound 294] | 1000 to 10000
5 | CNc1ccc2ncc(-c3cnc(N)nc3)n2c1 [Compound 195] | 1000 to 10000
6 | CC(C)(C)OC(=O)N(CCCc1ccccc1)c1ccc2ncc(-c3cccc(NC(=O)C4CCOCC4)c3)n2c1 [Compound 217] | 1000 to 10000
7 | CN(c1ccc2ncc(-c3ccccc3)n2c1)S(C)(=O)=O [Compound 91, N-methyl-N-(3-phenylimidazo[1,2-a]pyridin-6-yl)methanesulfonamide] | 1000 to 10000
8 | CN(C(=O)OC(C)(C)C)c1ccc2ncc(-c3cnc(N)nc3)n2c1 [Compound 194] | 1000 to 10000
9 | CC(C)(C)C(=O)Nc1ccc2ncc(I)n2c1 [Compound 304] | 1000 to 10000
10 | CNc1ccc2ncc(-c3cccc(-n4cccc4)c3)n2c1 [Compound 200] | 1000 to 10000
11 | CN(C(=O)OC(C)(C)C)c1ccc2ncc(-c3ccc4cc[nH]c4n3)n2c1 [Compound 297] | 1000 to 10000
12 | CNc1ccc2ncc(-c3cccc(S(N)(=O)=O)c3)n2c1 [Compound 62, 3-(6-(methylamino)imidazo[1,2-a]pyridin-3-yl) benzenesulfonamide] | 1000 to 10000
13 | c1cc(-c2cnc3ccc(N4CCOCC4)cn23)cc(N2CCOCC2)c1 [Compound 226] | 1000 to 10000
14 | CNc1ccc2ncc(-c3ccc(NC(=O)C4CCOCC4)cn3)n2c1 [Compound 193] | 1000 to 10000
15 | Cc1ncsc1-c1ccc(CNC(=O)[C@@H]2C[C@@H](O)CN2C(=O)[C@@H](NC(=O)COCCOCC(=O)N(C)c2ccc3ncc(-c4ccccc4Cl)n3c2)C(C)(C)C)cc1 [Compound 117, (2S,4R)-1-((S)-12-(tert-butyl)-2-(3-(2-chlorophenyl)imidazo[1,2-a]pyridin-6-yl)-3,10-dioxo-5,8-dioxa-2,11-diazahexadecane-13-acyl)-4-hydroxy-N-(4-(4-methylthiazol-5-yl)benzyl)pyrrolidin-2-carboxamide] | 1000 to 10000
16 | COc1ccc2ncc(-c3cccc4c3CNC4=O)n2c1 [Compound 235] | 1000 to 10000
17 | COc1ccc2ncc(Nc3ccccc3)n2c1 [Compound 82, 6-methoxy-N-phenylimidazo[1,2-a]pyridin-3-amine] | 1000 to 10000
18 | CN(C(=O)C(C)(C)C)c1ccc2ncc(-c3cccc(N)c3)n2c1 [Compound 302] | 1000 to 10000
19 | COc1ccc2ncc(-c3cccc(S(N)(=O)=O)c3)n2c1 [Compound 5] | 1000 to 10000
20 | COCCOCCNc1cccc(-c2cnc3ccc(N4CCOCC4)cn23)c1 [Compound 229] | 1000 to 10000
21 | CNc1ccc2ncc(-c3ccccc3C(C)NC(=O)C3CCOCC3)n2c1 (stereo not drawn) [Compound 191] | 1000 to 10000
22 | CNC(=O)c1ccccc1-c1cnc2ccc(NC)cn12 [Compound 176] | 1000 to 10000
23 | CNc1ccc2ncc(-c3ccccc3C(=O)NC3CCOCC3)n2c1 [Compound 177] | 1000 to 10000
24 | COc1cccc(-c2cnc3ccc(N(C)C(=O)OC(C)(C)C)cn23)n1 [Compound 16] | 1000 to 10000
25 | CN(C(=O)OC(C)(C)C)c1ccc2ncc(-c3cccc4c3ccn4C)n2c1 [Compound 285] | 1000 to 10000
26 | CNc1ccc2ncc(-c3ccc(OC)cc3)n2c1 [Compound 72] | 1000 to 10000
27 | COCCOCCNC(=O)c1cccc(-c2cnc3ccc(N(C)C(C)=O)cn23)c1 [Compound 310] | 1000 to 10000
28 | CC(=O)N(C)c1ccc2ncc(-c3ccccc3Cl)n2c1 [Compound 92, N-(3-(2-chlorophenyl)imidazo[1,2-a]pyridin-6-yl)-N-methylacetamide] | 1000 to 10000
29 | CN(C(=O)OC(C)(C)C)c1ccc2ncc(-c3ccc4[nH]ccc4n3)n2c1 [Compound 196] | 1000 to 10000

Second part, the compound after the results:

Row | IC50 [nM] | Structure (SMILES)
30 | 1000 to 10000 | CC(C)(C)OC(=O)N1CCOCCN(C(=O)OC(C)(C)C)S(=O)(=O)c2cccc(c2)-c2cnc3ccc1cn23 [Compound 80, di-tert-butyl(E)-7-oxa-3-thio-4,10-diaza-1(3,6)-imidazol[1,2-a]pyridin-2(1,3)-phenylcyclodecane-4,10-dicarboxylate 3,3-dioxide]
31 | 1000 to 10000 | CNc1ccc2ncc(-c3cccc(S(=O)(=O)N(C)C(=O)OC(C)(C)C)c3)n2c1 [Compound 59, tert-butyl methyl ((3-(6-(methylamino)imidazo[1,2-a]pyridin-3-yl)phenyl)sulfonyl)carbamate]
32 | < 1000 | CN(C(=O)OC(C)(C)C)c1ccc2ncc(-c3ccccc3C(=O)NC3CCOCC3)n2c1 [Compound 175]
33 | 1000 to 10000 | Nc1cccc(-c2cnc3ccc(N4CCCC4=O)cn23)c1 [Compound 204]
34 | 1000 to 10000 | CNc1ccc2ncc(-c3cccc4c3CN(CCN(C)C)C4=O)n2c1 [Compound 292]
35 | 1000 to 10000 | O=C(COCCOCc1ccccc1)Nc1cccc(-c2cnc3ccc(NCCCc4ccccc4)cn23)c1 [Compound 218]
36 | < 1000 | CNc1ccc2ncc(-c3cccc(NC(=O)c4ccccc4)n3)n2c1 [Compound 172]
37 | < 1000 | CN(C(=O)OC(C)(C)C)c1ccc2ncc(-c3cccc(-n4cccn4)c3)n2c1 [Compound 178]
38 | < 1000 | CN(C(=O)OC(C)(C)C)c1ccc2ncc(-c3cncc4ccccc34)n2c1 [Compound 268]
39 | < 1000 | CC(=O)N(C)c1ccc2ncc(-c3ccccc3)n2c1 [Compound 42]
40 | < 1000 | CN(C(=O)OC(C)(C)C)c1ccc2ncc(C3CCCc4ncccc43)n2c1 (stereo not drawn) [Compound 311]
41 | < 1000 | CNc1ccc2ncc(-c3cccc(-n4cccn4)c3)n2c1 [Compound 179]
42 | < 1000 | CNc1ccc2ncc(-c3ccnc4[nH]ccc34)n2c1 [Compound 166]
43 | < 1000 | CNC(=O)c1ccccc1-c1cnc2ccc(N(C)C(=O)OC(C)(C)C)cn12 [Compound 174]
44 | < 1000 | CNc1ccc2ncc(-c3cccc(CNC(=O)C4CCOCC4)c3)n2c1 [Compound 242]
45 | < 1000 | CN(C(=O)OC(C)(C)C)c1ccc2ncc(-c3ccnc4c3ccn4C)n2c1 [Compound 293]

— patent publication US20240368168A1, “SARM1 ENZYME ACTIVITY INHIBITOR AND APPLICATION THEREOF” (ARTIVILA BIOPHARMA, priority 2021, published 2024)
